# In publication PMC3441706 (PLoS ONE, 2012):
# What was measured:
# [1] = tested on: p-p53 (Ser15); test: Immunofluorescence staining of p-p53 (Ser15) in HCT116 cells; type: cell-based, human; conditions: HCT116, 24 hours
# Protocol: HCT116 and HeLa cells were seeded on glass cover slips in 6-well plates. 24 hours after plating, HCT116 cells were incubated with 0.15, 0.5 and 1 µM NVX-412 and 1 µM CPT for 24 hours for staining of p-p53. For investigating γH2AX, HeLa cells were incubated with 0.21, 0.5 and 1 µM NVX-412 and 1 µM CPT for 3 or 24 hours. Additionally, cells were allowed to recover for 24 hours in normal growth medium after 24 hours of incubation with NVX-412 or CPT (wash-out experiment). After the respective treatments, cells were washed and fixed with 4% methanol-free formaldehyde (Polysciences Inc. Warrington, PA, USA) for 15 minutes at room temperature and then permeabilized with 0.2% Triton X-100/PBS for 2 minutes at room temperature. After blocking with goat serum (5%) in 1% BSA/0.3% Triton X-100/PBS, the respective primary antibody was added and cells were incubated at 4°C overnight. Antibodies used were: mouse p-p53 (Ser15) (Cell Signaling Technology, Danvers, MA, USA) at 1∶100 dilution and mouse p-H2AX (Ser139) (Millipore, Billerica, MA, USA) at 1∶1000 dilution in 1% BSA/PBS, respectively. Cells were then washed 3 times for 10 minutes with 0.25% BSA/0.1% Triton X-100/PBS and incubated with the Alexa Fluor 488 conjugated secondary anti-mouse antibody (1∶1000 in 0.25% BSA/0.1% Triton X-100/PBS) for 1 hour at room temperature in the dark. Cells were washed 3 times for 10 minutes with 0.05% Tween-20/PBS containing Hoechst 33342 (Sigma Aldrich, Vienna, AUT) and mounted with mounting medium (Fluoprep, bioMérieux, Marcy l'Etoile, FRA). Fluorescence was immediately recorded on a Zeiss LSM700 laser scanning microscope.
# [2] = tested on: HT-29; test: Cytotoxicity assay (cell counting); type: cell-based, Human
# Protocol: (§1) Cells were plated in 24-well plates. After cells were allowed to recover for 24 hours, NVX-412 was added in fresh growth medium. The maximal DMSO concentration reached in all experiments was below 0.01%. Respective control experiments at the highest DMSO concentration were performed in order to rule out DMSO-induced effects. After 72 hours incubation the proportion of viable cells was determined by cell counting with a Z1 Coulter Particle Counter (Beckman Coulter, Vienna, AUT), a ViCell XR (Beckman Coulter, Vienna, AUT) or a CASY® Cell Counter (Schärfe, Reutlingen, Germany). Cytotoxicity was expressed as IC50 values that were derived from the corresponding dose–response curves.
# [3] = tested on: BV173; test: Cytotoxicity assay (cell counting); type: cell-based; conditions: Homo sapiens, BV-173; BV173, CML; 72 hours incubation
# Protocol: as §1
# [4] = tested on: Ramos; test: Cytotoxicity assay (cell counting); type: cell-based; conditions: Homo sapiens, Burkitt Lymphoma, 72 hours incubation
# Protocol: as §1
# [5] = tested on: HL-60; test: Cytotoxicity assay (cell counting); type: cell-based; conditions: Homo sapiens; HL-60, AML; 72 hours incubation
# Protocol: as §1
# [6] = tested on: K562; test: Cytotoxicity assay (cell counting); type: cell-based; conditions: Homo sapiens; K562, CML; 72 hours incubation
# Protocol: as §1
# [7] = tested on: MCF-7; test: Cytotoxicity assay (cell counting); type: cell-based; conditions: Homo sapiens, MCF7; MCF-7, breast adenocarcinoma; 72 hours incubation
# Protocol: as §1
# [8] = tested on: GL-1; test: Cytotoxicity assay (cell counting); type: cell-based; conditions: Canis lupus familiaris; GL-1, canine B-cell leukemia; 72 hours incubation
# Protocol: as §1
# [9] = tested on: Hs578T; test: Cytotoxicity assay (cell counting); type: cell-based; conditions: Homo sapiens, Hs-578T, breast carcinoma, 72 hours incubation
# Protocol: as §1
# [10] = tested on: KG-1a; test: Cytotoxicity assay (cell counting); type: cell-based; conditions: Homo sapiens, AML, 72 hours incubation
# Protocol: as §1
# [11] = tested on: RKO; test: Cytotoxicity assay (cell counting); type: cell-based; conditions: Homo sapiens, colon carcinoma, 72 hours incubation
# Protocol: as §1
# [12] = tested on: HepG2; test: Cytotoxicity assay (cell counting); type: cell-based; conditions: Homo sapiens; HepG2, liver carcinoma; 72 hours incubation
# Protocol: as §1
# [13] = tested on: SU-DHL-8; test: Cytotoxicity assay (cell counting); type: cell-based; conditions: Homo sapiens; SU-DHL-8, B-cell lymphoma; 72 hours incubation
# Protocol: as §1
# [14] = tested on: SU-DHL-6; test: Cytotoxicity assay (cell counting); type: cell-based; conditions: Homo sapiens; SU-DHL-6, B-cell lymphoma; 72 hours incubation
# Protocol: as §1
# [15] = tested on: NALM-1; test: Cytotoxicity assay (cell counting); type: cell-based; conditions: Homo sapiens; NALM-1, CML; 72 hours incubation
# Protocol: as §1
# [16] = tested on: CL-1; test: Cytotoxicity assay (cell counting); type: cell-based; conditions: Canis lupus familiaris; CL-1, canine T-cell lymphoma; 72 hours incubation
# Protocol: as §1
# [17] = tested on: OSW; test: Cytotoxicity assay (cell counting); type: cell-based; conditions: Canis lupus familiaris, canine T-cell lymphoma, 72 hours incubation
# Protocol: as §1
# [18] = tested on: KG-1; test: Cytotoxicity assay (cell counting); type: cell-based; conditions: Homo sapiens; KG-1, AML; 72 hours incubation
# Protocol: as §1
# [19] = tested on: CLBL-1; test: Cytotoxicity assay (cell counting); type: cell-based; conditions: Canis lupus familiaris; CLBL-1, canine B-cell lymphoma; 72 hours incubation
# Protocol: as §1
# [20] = tested on: Raji; test: Cytotoxicity assay (cell counting); type: cell-based; conditions: Homo sapiens, Burkitt lymphoma, 72 hours incubation
# Protocol: as §1
# [21] = tested on: HeLa; test: Cytotoxicity assay (cell counting); type: cell-based; conditions: Homo sapiens, cervix carcinoma, 72 hours incubation
# Protocol: as §1
# [22] = tested on: HeLa cells; test: Morphology assay / quantification of cell sizes; type: cell-based, human; conditions: 48 hours treatment
# Protocol: (§2) To investigate potential morphological changes upon treatment with NVX-412, HCT116, HeLa and HT-29 cells were plated in 6-well plates and incubated for up to 72 hours with the indicated concentrations of NVX-412, DMSO as vehicle control and 1 µM Camptothecin (CPT) as a positive control for apoptotic morphology. Control experiments were carried out to ensure that morphological changes are not due to differences in confluency. After 24, 48 and 72 hours pictures were taken with an Olympus IX71 inverted microscope and camera system (Olympus Color View III) at 20× magnification.
# (§3) Cell sizes were quantified using specialized imaging software (ImageJ 1.45d, US NIH, Bethesda, MD, USA). Average areas of all cells present within 5 different fields of view per sample were determined after 48 hours treatment with 0, 0.15 and 1 µM NVX-412.
# [23] = tested on: HT-29 cells; test: Morphology assay / quantification of cell sizes; type: cell-based, human; conditions: HT-29, 48 hours treatment
# Protocol: as §2, §3
# [24] = tested on: HCT116 cells; test: Morphology assay / quantification of cell sizes; type: cell-based, human; conditions: HCT116, 48 hours treatment, 0.15 and 1 µM
# Protocol: as §2, §3
compound,measurement,setting,value
"O=C(NNc1nc2cc(F)ccc2n2cccc12)c1cnccn1 [NVX-412, Pyrazine-2-carboxylic acid N’- (7-fluoro-pyrrolo[1,2-α]quinoxalin-4-yl)-hydrazide-oxalic acid co-crystal]",p-p53 (Ser15) immunofluorescence staining,[1]; 0.5 and 1 µM,positive staining
same,p-p53 (Ser15) immunofluorescence staining,[1]; IC50 concentration,did not lead to p-p53 (Ser15) staining
same,IC50 lower compared to the parental compound NVX-144,[2]; HT-29 colon carcinoma cell line,3 to 4 fold
same,IC50,"[2]; Homo sapiens, HT-29, colon adenocarcinoma, 72 hours incubation",0.3 µM
same,IC50,[3],0.21 µM
same,IC50,[4],0.17 µM
same,IC50,[5],0.21 µM
same,IC50,[6],0.54 µM
same,IC50,[7],0.15 µM
same,IC50,[8],0.105 µM
same,IC50,[9],0.135 µM
same,IC50,[10],0.145 µM
same,IC50,[11],0.15 µM
same,IC50,[12],0.29 µM
same,IC50,[13],0.08 µM
same,IC50,[14],0.32 µM
same,IC50,[15],0.33 µM
same,IC50,[16],0.17 µM
same,IC50,[17],0.103 µM
same,IC50,[18],0.19 µM
same,IC50,[19],0.04 µM
same,IC50,[20],0.06 µM
same,IC50,[21],0.21 µM
same,Cell sizes,[22],highly significant increase in cell sizes
same,Cell sizes,[23],highly significant increase in cell sizes
same,Cell sizes,[24],highly significant increase in cell sizes
